Test results from article PMC9727064, “Performance assessment and economic analysis of a human Liver-Chip for predictive toxicology” (Communications Medicine, 2022).
Where two headings read alike, the source gives them in different places.

What was measured:
[1] = tested on: clinical drug-induced liver injury; settings: clinical DILI severity category 1 to 5; cited from earlier work
[2] = tested on: human Liver-Chip (hepatocytes and non-parenchymal cells)
Protocol: At least four to six brightfield images were acquired per chip for morphology analysis. […] Brightfield images were acquired across three fields of view on days 1, 3, and 7 for each cycle. Cytotoxicity classification was performed while acquiring images for both NPCs and hepatocytes. Images were then scored zero to four by blinded individuals (n = 2) based on severity of agglomeration of cell debris for both channels. The scoring matrix and representative images have been included in the supplement (Supplementary Fig. 1).
Hepatocyte layer on Chips
Non-parenchymal cell layer on Chips
Supplementary Figure 1. (a) Representative brightfield images to depict the cellular morphology score in the top channel of the Liver-Chip which contains hepatocytes. A score of 0 represents no hepatotoxicity detected, which is defined by 95-100% healthy hepatocyte morphology, hexagonal shape containing binucleated cells, clear cell cytoplasm, distinctive cell junctions and less than 5% dead cells. A score of 1 […]
cells. A score of 2 represents mild hepatotoxicity with > 70% monolayer of hepatocytes visible, evidence that cells have begun to lose their distinct cell junctions, many cells contain a granulated cytoplasm but < 30% are dead cells. A score of 3 represents moderate hepatotoxicity with severe granulation of cytoplasm and most of the cells have lost their junctions. Approximately 50% of the cells are considered dead. A score of 4 represents severe hepatotoxicity with agglomeration of cell debris and > 50% of the cells are considered dead. The pores on the membrane become visible as there is no longer a cellular monolayer. (b) Representative brightfield images to depict the cellular morphology score in the bottom channel of the Liver-Chip which contains non-parenchymal cells. A score of 0 represents no cytotoxicity detected, with an intact monolayer and <1% of the cells are dead. A score of 1 represents at least 90% of the monolayer is present and there are <10% dead cells. A score of 2 represents mild cytotoxicity with > 80% of the monolayer present and < 20% are dead cells. A score of 3 represents moderate cytotoxicity with > 50% of the monolayer present and < 50% are dead cells. A score of 4 represents severe cytotoxicity with > 50% of the cells are considered dead. (bar, 50 μm). […]

[3] = tested on: human Liver-Chip (primary human hepatocytes); assay: Liver-Chip albumin production in top channel effluent (ELISA); type: cell-based; settings: concentration causing a 50% reduction in albumin production
Text: (§1) Cycles 1 to 4 tested 6–8 concentrations in duplicate for each of 10–13 drugs. To determine which sampling strategy was optimal for cycles 1 to 4 (16 doses × 1 replicate, 8 × 2, 5 × 3, or 4 × 4), we generated three different “dose-response” synthetic datasets, each distorted by different noise levels (low, medium, or high). For each of these datasets, we performed curve-fitting analyses and calculated the Root Mean Square Error between the “true” and estimated IC50 parameter. […] Some drugs were also repeated across cycles (on different donors or at different concentrations) to ensure experimental robustness. However, to replicate a more typical study design likely to be carried out by scientists in the pharmaceutical industry, we created cycle 5 with 6 drugs, where each was tested in 4 concentrations in triplicate. For each cycle, chips were dosed with drug over 8 days (referred to as Day 0 through Day 7).
(§2) The drug dosing concentrations were determined from the unbound human Cmax of each drug. First, the expected fraction of drug unbound in media with 2% FBS was extrapolated from plasma binding data for each drug. Dosing concentrations were then back calculated such that the unbound fraction in media would reflect relevant multiples of unbound human Cmax (Supplementary Data 1).
(§3) On the first dosing day (Day 0), all chips were imaged using the ECHO microscope. Five hundred microliters of effluent was collected from all four reservoirs of the pod and placed in a labeled 96-well plate. After collection, all the remaining media was carefully aspirated before dosing with 3.8 mL of corresponding dosing solution. Dosing occurred on study days 0, 2, and 4 for chips flowing at 30 µL/h, and on days 0, 1, 2, 3, 4, 5, and 6 for chips flowing at 150 µL/h. Effluent collection occurred on days 1, 3, and 7.
(§4) Top channel outlet effluents were analyzed to quantify albumin and alanine transaminase (ALT) levels on days 1, 3, and 7 using sandwich ELISA kits (Abcam, Albumin ab179887, ALT ab234578) according to vendor-provided protocols. Frozen (−80 °C) effluent samples were thawed overnight at 4 °C prior to assay. The Hamilton Vantage liquid handling platform was used to manage effluent dilutions (1:500 for albumin, neat for ALT), preparation of standard curves, and addition of antibody cocktail. Absorbance at 450 nm was measured using the SynergyNeo Microplate Reader (BioTek).
All statistical analyses were conducted in R[21] (version 4.1.2) and figures were produced using the R package ggplot2[22] (version 3.3.5). The dose-response analysis (Fig. 4) was carried out using the popular drc R package developed by Ritz et al.[23] using the generalized log-logistic dose-response model. The error bars in Figs. 3 and 4, correspond to the standard errors of the mean. The circles in Fig. 3 correspond to the samples used to calculate the corresponding statistics. The analysis of significance in Fig. 3 was performed using paired t-test across different days (same donor) and unpaired t-test across different donors (same day). In Fig. 3 the number of samples used were n = 3 for donor two, and n = 4 for donor three. For both donors, the number of the freshly thawed hepatocyte samples used to estimate the corresponding log2(Fold Change) were n = 4. Finally, the analysis of significance in Fig. 3 was performed using paired t-test.

[4] = tested on: human Liver-Chip (primary human hepatocytes); assay: Liver-Chip alanine transaminase (ALT) release in top channel effluent (ELISA); type: cell-based; settings: for ALT Donor 1 / ALT Donor 2 / ALT Donor 3: lowest concentration causing an increase in ALT protein
Text: as §1, §2, §3, §4

human Liver-Chip = assay: Liver-Chip DILI prediction: minimum toxic concentration and margin of safety (MOS)-like figure; settings: for Chip MOS donor 1 / Chip MOS both donors / Chip MOS donor 2: free IC50 concentration in the assay divided by total concentration of drug in human plasma at Cmax;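 as to Chip MOS both donors: Toxic concentration is the lowest across albumin IC50 and ALT and morphology endpoints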;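 as to Chip MOS donor 1: Toxic concentration is the lowest across albumin IC50 and ALT and morphology endpoints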;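 as to Chip MOS donor 2: Toxic concentration is the lowest across albumin IC50 and ALT and morphology endpoints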
Text: Because the fundamental principles of drug action dictate that free (unbound) drug concentrations drive drug effects, we explored an alternative methodology for calculating the MOS-like values by accounting for protein binding using a previously reported approach. Accordingly, we reanalyzed the findings for the 27 drugs in our study by accounting for protein binding.

[5] = human, total plasma Cmax, cited from earlier work
[6] = lowest concentration causing an increase in cellular morphology score, donor 1

Morphology Donor 2 ([2]; human) | Morphology Donor 3 ([2]; human) | Morphology Donor 2 ([2]; lowest concentration causing an increase in cellular morphology score, donor 2) | Morphology Donor 3 ([2]; lowest concentration causing an increase in cellular morphology score, donor 3) | SMILES | Garside DILI rank [1] | Morphology Donor 1 ([2]; human) | Albumin IC50 Donor 1 [3] | ALT Donor 1 [4] | Chip MOS donor 1 (human Liver-Chip) | Morphology Donor 1 [2, 6] | Human Cmax Total ([5]; ref Lombardo, F., Berellini, G. & Obach, R. S. (70)) | Albumin IC50 Donor 2 [3] | ALT Donor 2 [4] | Chip MOS both donors (human Liver-Chip) | Chip MOS donor 2 (human Liver-Chip) | Human Cmax Total ([5]; ref Xu, J. J. et al. (36)) | Albumin IC50 Donor 3 [3] | ALT_levels ([4]; Concentration_Day3 = 45, one line per replicate chip) | ALT Donor 3 [4] | Liver-Chip toxicity determination, MOS-like figure against threshold value of 50 (human Liver-Chip; not corrected for protein binding, donors one and two)
 |  |  |  | CCc1nn(CCCN2CCN(c3cccc(Cl)c3)CC2)c(=O)n1CCOc1ccccc1 [Nefazodone] | 1 | 300 multiples of the unbound human Cmax | 140 multiples of the unbound human Cmax | 300 multiples of the unbound human Cmax | 1.4 |  |  |  |  |  |  |  |  |  |  | 
 |  |  |  | CCN(CC)C(=O)/C(C#N)=C/c1cc(O)c(O)c([N+](=O)[O-])c1 [Entacapone] | 4 |  | >300 multiples of the unbound human Cmax | >300 multiples of the unbound human Cmax | >6 | >300 multiples of the unbound human Cmax | 3.3 µM |  |  |  |  |  |  |  |  | 
>45 multiples of the unbound human Cmax | >45 multiples of the unbound human Cmax |  |  | C[C@H]1COc2c(N3CCN(C)CC3)c(F)cc3c(=O)c(C(=O)O)cn1c23 [Levofloxacin] |  | >15 multiples of the unbound human Cmax | >15 multiples of the unbound human Cmax | >15 multiples of the unbound human Cmax | >11.3 |  |  | >45 multiples of the unbound human Cmax | >45 multiples of the unbound human Cmax | >33.7 | >33.7 | 15.8 µM | >45 multiples of the unbound human Cmax | 0 | >45 multiples of the unbound human Cmax | not detected
 |  | 100 multiples of the unbound human Cmax | 100 multiples of the unbound human Cmax | Cc1cc2c(cc1CC(=O)c1sccc1S(=O)(=O)Nc1onc(C)c1Cl)OCO2 [Sitaxsentan] | 1 |  | 4.4 multiples of the unbound human Cmax | 300 multiples of the unbound human Cmax | 0.04 | 100 multiples of the unbound human Cmax |  | 164 multiples of the unbound human Cmax | 300 multiples of the unbound human Cmax | 0.04 | 1.6 |  | >100 multiples of the unbound human Cmax |  | 100 multiples of the unbound human Cmax | 
100 multiples of the unbound human Cmax | 30 multiples of the unbound human Cmax |  |  | N[C@@H]1[C@H]2CN(c3nc4c(cc3F)c(=O)c(C(=O)O)cn4-c3ccc(F)cc3F)C[C@@H]12 [Trovafloxacin] |  | 100 multiples of the unbound human Cmax | 82 multiples of the unbound human Cmax | 100 multiples of the unbound human Cmax |  |  |  | 78 multiples of the unbound human Cmax | 100 multiples of the unbound human Cmax |  |  |  | 31 multiples of the unbound human Cmax |  | 30 multiples of the unbound human Cmax | 

SMILES | Morphology Donor 2 ([2]; human) | Morphology Donor 3 ([2]; human) | Morphology Donor 2 ([2]; lowest concentration causing an increase in cellular morphology score, donor 2) | Morphology Donor 3 ([2]; lowest concentration causing an increase in cellular morphology score, donor 3) | Garside DILI rank [1] | Morphology Donor 1 ([2]; human) | Albumin IC50 Donor 1 [3] | ALT Donor 1 [4] | Chip MOS donor 1 (human Liver-Chip) | Morphology Donor 1 [2, 6] | Human Cmax Total ([5]; ref Lombardo, F., Berellini, G. & Obach, R. S. (70)) | Albumin IC50 Donor 2 [3] | ALT Donor 2 [4] | Chip MOS both donors (human Liver-Chip) | Chip MOS donor 2 (human Liver-Chip) | Human Cmax Total ([5]; ref Xu, J. J. et al. (36)) | Albumin IC50 Donor 3 [3] | ALT_levels ([4]; Concentration_Day3 = 45, one line per replicate chip) | ALT Donor 3 [4] | Liver-Chip toxicity determination, MOS-like figure against threshold value of 50 (human Liver-Chip; not corrected for protein binding, donors one and two)
CCc1ccc(CCOc2ccc(CC3SC(=O)NC3=O)cc2)nc1 (centres unmarked) [Pioglitazone] | >300 multiples of the unbound human Cmax |  |  |  | 3 | >300 multiples of the unbound human Cmax | 277 multiples of the unbound human Cmax | >300 multiples of the unbound human Cmax | 2.8 |  |  | >300 multiples of the unbound human Cmax | >300 multiples of the unbound human Cmax | 2.8 | > 2.8 | 3 µM |  |  |  | 
